Assay results reported in the NIST ThermoML archive (doi:10.1016/j.fluid.2013.06.017).
± gives the expanded uncertainty stated by the source.

Conditions: Liquid, Closed cell (Static) method

Row | SMILES | vapor or sublimation pressure (258.15 K) [kPa] | vapor or sublimation pressure (268.15 K) [kPa] | vapor or sublimation pressure (278.15 K) [kPa] | vapor or sublimation pressure (288.15 K) [kPa]
1 | F/C=C/C(F)(F)F [trans-1,3,3,3-tetrafluoropropene] | 120.2 ± 1 | 179.3 ± 1 | 259.2 ± 1.1 | 364.2 ± 1.1
2 | CC(F)F [1,1-difluoroethane] | 148.6 ± 1 | 219.4 ± 1.1 | 314.1 ± 1.1 | 437.8 ± 1.2
